In ChEMBL document CHEMBL1201862, “PubChem BioAssay data set” (2004):
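Step 1: Grow cells in 96-well plates. Step 2: Expose to compound for 48 hours at 5 concentrations. Step 3: Interpolate endpoints linearly; if unreached, use highest concentration. GI50 marks 50% less growth.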 Activity calls are given as the source filed them. Rule as the data show it: active = GI50 up to about 1.1 µM and inactive = higher.

Experiments:
Assay in all cases: NCI tumour cell line growth inhibition, 48 h
IGROV-1 = tested on: IGROV-1
MDA-MB-435 = tested on: MDA-MB-435
UACC-62 = tested on: UACC-62
EKVX = tested on: EKVX
NCI-H460 = tested on: NCI-H460
786-0 = tested on: 786-0
RXF 393 = tested on: RXF 393
TK-10 = tested on: TK-10
NCI-H522 = tested on: NCI-H522
SNB-19 = tested on: SNB-19
HCT-116 = tested on: HCT-116
U-251 = tested on: U-251
UO-31 = tested on: UO-31
OVCAR-4 = tested on: OVCAR-4
SK-MEL-5 = tested on: SK-MEL-5
ACHN = tested on: ACHN
SR = tested on: SR
SK-MEL-2 = tested on: SK-MEL-2
SF-295 = tested on: SF-295

Measured: GI50

Cc1cc(OCC(=O)O)c(Cl)cc1Cl
inactive: IGROV-1 > 100 µM | MDA-MB-435 > 100 µM | UACC-62 > 100 µM | EKVX > 100 µM | NCI-H460 > 100 µM | 786-0 > 100 µM | RXF 393 > 100 µM | TK-10 > 100 µM | NCI-H522 > 100 µM | SNB-19 > 100 µM | HCT-116 > 100 µM | U-251 > 100 µM | UO-31 > 100 µM | OVCAR-4 > 100 µM | SK-MEL-5 > 100 µM | ACHN > 100 µM | SR > 100 µM | SK-MEL-2 > 100 µM | SF-295 > 100 µM

CN(C)CCCN1CCc2c([nH]c3ccccc23)C1c1cccnc1 (stereo not drawn)
inactive: IGROV-1 > 100 µM | UACC-62 > 100 µM | EKVX > 100 µM | NCI-H460 > 100 µM | 786-0 > 100 µM | RXF 393 > 100 µM | TK-10 > 100 µM | NCI-H522 > 100 µM | SNB-19 > 100 µM | HCT-116 > 100 µM | U-251 > 100 µM | UO-31 > 100 µM | OVCAR-4 > 100 µM | SK-MEL-5 > 100 µM | ACHN > 100 µM | SR > 100 µM | SK-MEL-2 > 100 µM | SF-295 > 100 µM

CC(C)OCN/C(N)=N\C#N
inactive: IGROV-1 > 100 µM | UACC-62 > 100 µM | EKVX > 100 µM | NCI-H460 > 100 µM | 786-0 82.4 µM | RXF 393 46.1 µM | TK-10 > 100 µM | NCI-H522 > 100 µM | SNB-19 > 100 µM | HCT-116 > 100 µM | U-251 > 100 µM | UO-31 > 100 µM | OVCAR-4 > 100 µM | SK-MEL-5 > 100 µM | ACHN > 100 µM | SR 10.8 µM | SK-MEL-2 > 100 µM | SF-295 > 100 µM

COC(=O)/C=C/c1c(CC=C(C)C)ncn1C
inactive: IGROV-1 > 100 µM | UACC-62 16.6 µM | EKVX > 57.1 µM | NCI-H460 40.2 µM | 786-0 38.5 µM | RXF 393 22.5 µM | TK-10 55.7 µM | NCI-H522 25.3 µM | SNB-19 26.1 µM | HCT-116 24.3 µM | U-251 19.1 µM | UO-31 28.2 µM | OVCAR-4 84.9 µM | SK-MEL-5 22.1 µM | ACHN > 76.7 µM | SR 4.29 µM | SK-MEL-2 19.6 µM | SF-295 24.4 µM
